For one assay, the target named is T1, human σ2/TMEM97 receptor (Homo sapiens, UniProt Q5BJF2).
T1 construct: expressed in transfected cells; host or cells: HEK-293
Description: Binding assay to human σ2/TMEM97 receptor. The following applies: transfected HEK-293 membranes, 10 nM [3H]-DTG, 25° C. 120 minutes; + may also stand for 1-50% inhibition at 1 or 10 μM; read-out: Binding σ-2 Ki. The procedure: Binding Assay to Human σ2/TMEM97 Receptor
Transfected HEK-293 membranes (15 μg) were incubated with 10 nM [^3H]-1,3-Di-o-tolylguanidine (DTG) in assay buffer containing Tris-HCl 50 mM at pH 8.0. NSB (non-specific binding) was measured by adding 10 μM haloperidol. The binding of the test compound was measured at either one concentration (% inhibition at 1 or 10 μM) or five different concentrations to determine affinity values (Ki). Plates were incubated at 25° C. for 120 minutes. After the incubation period, the reaction mix was transferred to MultiScreen HTS, FC plates (Millipore), filtered and washed 3 times with ice-cold 10 mM Tris-HCL (pH 8.0). Filters were dried and counted at approximately 40% efficiency in a MicroBeta scintillation counter (Perkin-Elmer) using EcoScint liquid scintillation cocktail.

The target of another assay is T2, human σ1 receptor (Homo sapiens, UniProt Q99720).
T2 construct: expressed in transfected cells; host or cells: HEK-293
The assay is described as follows: Human σ1 receptor radioligand assay. As to conditions: transfected HEK-293 membranes, 5 nM [3H](+)-pentazocine, 37° C. 120 minutes; + may also stand for 1-50% inhibition at 1 or 10 μM; read-out: Binding σ-1 Ki. The procedure:
Human σ1 Receptor Radioligand Assay
Transfected HEK-293 membranes (7 μg) were incubated with 5 nM of [^3H](+)-pentazocine in assay buffer containing Tris-HCl 50 mM at pH 8. NBS (non-specific binding) was measured by adding 10 μM haloperidol. The binding of the test compound was measured at either one concentration (% inhibition at 1 or 10 μM) or five different concentrations to determine affinity values (Ki). Plates were incubated at 37° C. for 120 minutes. After the incubation period, the reaction mix was then transferred to MultiScreen HTS, FC plates (Millipore), filtered and plates were washed 3 times with ice-cold 10 mM Tris-HCL (pH7.4). Filters were dried and counted at approximately 40% efficiency in a MicroBeta scintillation counter (Perkin-Elmer) using EcoScint liquid scintillation cocktail.

As a reminder, the Ki is the dissociation constant of the complex between target and ligand, obtained from inhibition or displacement.

T2 sequence (Q99720 whole entry): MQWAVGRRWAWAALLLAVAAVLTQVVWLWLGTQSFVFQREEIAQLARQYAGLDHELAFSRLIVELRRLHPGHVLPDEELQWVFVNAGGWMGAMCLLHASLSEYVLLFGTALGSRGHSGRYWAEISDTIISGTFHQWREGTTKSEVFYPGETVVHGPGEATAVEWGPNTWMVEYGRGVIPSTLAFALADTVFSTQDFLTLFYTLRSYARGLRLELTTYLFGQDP
T1 sequence (Q5BJF2 whole entry): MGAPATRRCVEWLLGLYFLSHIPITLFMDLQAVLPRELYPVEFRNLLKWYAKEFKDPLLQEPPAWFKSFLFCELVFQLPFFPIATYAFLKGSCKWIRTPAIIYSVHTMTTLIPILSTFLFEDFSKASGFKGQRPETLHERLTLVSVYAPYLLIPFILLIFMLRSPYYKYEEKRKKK

Take `N#Cc1cccc(CN2CC[C@@H](NS(=O)(=O)c3ccc(N4CCOCC4)nc3)C2)c1` [Example 40, (R)-N-(1-(3-Cyanobenzyl)pyrrolidin-3-yl)-6-morpholinopyridine-3-sulfonamide]: the inhibition constant Ki at human σ2/TMEM97 receptor was over 1000 nM; at human σ1 receptor, 100 to 500 nM.
Turning to `CC(C)(C)CCN1CCCC2(CCN(S(=O)(=O)c3ccc(N4CCC5(CCCO5)CC4)nc3)CC2)C1` [Example 78, 8-(5-((2-(3,3-Dimethylbutyl)-2,9-diazaspiro[5.5]undecan-9-yl)sulfonyl)pyridin-2-yl)-1-oxa-8-azaspiro[4.5]decane], the Ki at human σ2/TMEM97 receptor and on human σ1 receptor was under 100 nM each time.
As for `CC(C)(C)CCN1CCC2(CC1)CCN(S(=O)(=O)c1ccc(N3CCCC3=O)nc1)C2` [Example 139, 1-(5-((8-(3,3-Dimethylbutyl)-2,8-diazaspiro[4.5]decan-2-yl)sulfonyl)pyridin-2-yl)pyrrolidin-2-one], the Ki on human σ2/TMEM97 receptor and on human σ1 receptor was under 100 nM in each case.
On to `CN(CCC(C)(C)C)[C@H]1CC[C@H](NS(=O)(=O)c2ccc(N3CCC4(CCOC4)CC3)nc2)CC1` [Example 181, N-((1r,4r)-4-((3,3-Dimethylbut-yl)(methyl)amino)cyclohexyl)-6-(2-oxa-8-azaspiro[4.5]decan-8-yl)pyridine-3-sulfonamide], for which the figures for the Ki at human σ2/TMEM97 receptor and at human σ1 receptor were under 100 nM and 500 to 1000 nM, respectively.
For `CN(Cc1ccccc1)C1CCN(S(=O)(=O)c2ccc(N3CCOC3=O)nc2)CC1` [Example 142, 3-(5-((4-(Benzyl(methyl)ami-no)piperidin-1-yl)sulfonyl)pyridin-2-yl)oxazolidin-2-one] the same measures were under 100 nM and 100 to 500 nM.
Take `N#Cc1ccc(CN2CCC3(CCCN(S(=O)(=O)c4ccc(N5CCOC5=O)nc4)C3)CC2)c(F)c1` [Example 125, 3-Fluoro-4-((2-((6-(2-oxooxazolidin-3-yl)pyridin-3-yl)sulfonyl)-2,9-diazaspiro[5.5]undecan-9-yl)methyl)benzonitrile]: the Ki at human σ2/TMEM97 receptor and at human σ1 receptor was under 100 nM in each case.
Take `O=S(=O)(c1ccc(N2CCOCC2)nc1)N1CCCC2(CCN(Cc3ccncc3)CC2)C1` [Example 63, 4-(5-((9-(Pyridin-4-ylmethyl)-2,9-diazaspiro[5.5]undecan-2-yl)sulfonyl)pyridin-2-yl)morpholine]: the Ki at human σ2/TMEM97 receptor was under 100 nM; at human σ1 receptor it was 100 to 500 nM.
For `O=S(=O)(N[C@@H]1CCN(Cc2ccc(C(F)(F)F)nc2)C1)c1ccc(N2CCOCC2)nc1` [Example 44, (R)-6-Morpholino-N-(1-((6-(trifluoromethyl)pyridin-3-yl)methyl)pyrrolidin-3-yl)pyridine-3-sulfonamide], in that order: over 1000 nM and 500 to 1000 nM.
On to `O=C1OCCN1c1ccc(S(=O)(=O)N2CCC3(CCN(Cc4ccccc4)CC3)C2)cn1` [Example 144, 3-(5-((8-Benzyl-2,8-diazaspiro[4.5]decan-2-yl)sulfonyl)pyridin-2-yl)oxazolidin-2-one], for which the Ki on human σ2/TMEM97 receptor and at human σ1 receptor was 100 to 500 nM throughout.
Consider `N#Cc1ccc(CN2CCC3(CC2)CCN(S(=O)(=O)c2ccc(N4CCOC4=O)nc2)C3)cc1F` [Example 164, 2-Fluoro-4-((2-((6-(2-oxooxazolidin-3-yl)pyridin-3-yl)sulfonyl)-2,8-diazaspiro[4.5]decan-8-yl)methyl)benzonitrile], for which the Ki on human σ2/TMEM97 receptor and at human σ1 receptor was 100 to 500 nM throughout.
Consider `CC(C)(C)CCN1CCC2(CC1)CCN(S(=O)(=O)c1ccc(N3CCC4(CCCO4)CC3)nc1)CC2` [Example 71, 8-(5-((9-(3,3-Dimethylbutyl)-3,9-diazaspiro[5.5]undecan-3-yl)sulfonyl)pyridin-2-yl)-1-oxa-8-azaspiro[4.5]decane], for which the Ki at human σ2/TMEM97 receptor and on human σ1 receptor was under 100 nM each time.
As to `CCC(=O)Nc1ccc(S(=O)(=O)N2CCCC3(CCN(CCC(C)(C)C)CC3)C2)cn1` [Example 106, N-(5-((9-(3,3-Dimethylbutyl)-2,9-diazaspiro[5.5]undecan-2-yl)sulfonyl)pyridin-2-yl)propionamide], the Ki at human σ2/TMEM97 receptor and on human σ1 receptor was under 100 nM throughout.
With `CC(C)(C)CN1CCCC2(CCN(S(=O)(=O)c3ccc(N4CCOC4=O)nc3)CC2)C1` [Example 150, 3-(5-((2-Neopentyl-2,9-diazaspiro[5.5]undecan-9-yl)sulfonyl)pyridin-2-yl)oxazolidin-2-one], the Ki is over 1000 nM at human σ2/TMEM97 receptor and 500 to 1000 nM at human σ1 receptor.
For `CC(C)(C)CCN1CCC2(CCCN(S(=O)(=O)c3ccc(C(F)(F)F)nc3)C2)CC1` [Example 92, 9-(3,3-Dimethylbutyl)-2-((6-(trifluoromethyl)pyridin-3-yl)sulfonyl)-2,9-diazaspiro[5.5]undecane] the same measures were under 100 nM and under 100 nM.
For `O=S(=O)(c1ccc(N2CCC(F)(F)CC2)nc1)N1CCC2(CCN(Cc3ccccc3)CC2)C1` [Example 82, 8-Benzyl-2-((6-(4,4-difluoropiperidin-1-yl)pyridin-3-yl)sulfonyl)-2,8-diazaspiro[4.5]decane] the same measures were under 100 nM and under 100 nM.
Regarding `O=S(=O)(N[C@H]1CCN(Cc2ccccc2)C1)c1cnc(N2CCOCC2)c(F)c1` [Example 25, (S)-N-(1-Benzylpyrrolidin-3-yl)-5-fluoro-6-morpholinopyridine-3-sulfonamide], the Ki is over 1000 nM on human σ2/TMEM97 receptor and under 100 nM at human σ1 receptor.
In the case of `O=C1OCCN1c1ccc(S(=O)(=O)N2CCC3(CCCN(Cc4ccccc4F)C3)CC2)cn1` [Example 145, 3-(5-((2-(2-Fluorobenzyl)-2,9-diazaspiro[5.5]undecan-9-yl)sulfonyl)pyridin-2-yl)oxazolidin-2-one], the Ki on human σ2/TMEM97 receptor was in the range of 100 to 500 nM; at human σ1 receptor, 500 to 1000 nM.
For `CC(C)(C)CCN1CCC2(CC1)CCN(S(=O)(=O)c1ccc(N3CCOC3=O)nc1)C2` [Example 138, 3-(5-((8-(3,3-Dimethylbutyl)-2,8-diazaspiro[4.5]decan-2-yl)sulfonyl)pyridin-2-yl)oxazolidin-2-one], in that order: under 100 nM and under 100 nM.
As to `CN(Cc1ccccc1)C1CCN(S(=O)(=O)c2ccc(N3CCOCC3)nc2)CC1` [Example 16, N-Benzyl-N-methyl-1-((6-morpholinopyridin-3-yl)sulfonyl)piperidin-4-amine], the Ki at human σ2/TMEM97 receptor was 100 to 500 nM; on human σ1 receptor, over 1000 nM.
For `CC(C)(C)CCN1CCC2(CCCN(S(=O)(=O)c3ccc(N4CCC(F)(F)CC4)nc3)C2)CC1` [Example 96, 2-((6-(4,4-Difluoropiperidin-1-yl)pyridin-3-yl)sulfonyl)-9-(3,3-dimethylbutyl)-2,9-diazaspiro[5.5]undecane], in that order: under 100 nM and under 100 nM.
Take `O=S(=O)(NC1CCN(Cc2ccc(F)cc2)CC1)c1ccc(N2CCOCC2)nc1` [Example 7, N-(1-(4-Fluorobenzyl)piperidin-4-yl)-6-morpholinopyridine-3-sulfonamide]: the Ki is over 1000 nM on human σ2/TMEM97 receptor and under 100 nM on human σ1 receptor.
For `O=C1OCCN1c1ccc(S(=O)(=O)N2CCC3(CCCN(CC4CCOCC4)C3)CC2)cn1` [Example 149, 3-(5-((2-((Tetrahydro-2H-pyran-4-yl)methyl)-2,9-diazaspiro[5.5]undecan-9-yl)sulfonyl)pyridin-2-yl)oxazolidin-2-one] the same measures were 100 to 500 nM and under 100 nM.
`O=S(=O)(N[C@@H]1CCN(Cc2ccccc2)C1)c1cnc(N2CCOCC2)c(F)c1` [Example 24, (R)-N-(1-Benzylpyrrolidin-3-yl)-5-fluoro-6-morpholinopyridine-3-sulfonamide]: the Ki at human σ2/TMEM97 receptor is 500 to 1000 nM; at human σ1 receptor, under 100 nM.
With `CN(C)c1ccc(S(=O)(=O)N[C@H]2CCN(Cc3ccccc3)C2)cn1` [Example 21, (S)-N-(1-Benzylpyrrolidin-3-yl)-6-(dimethylamino) pyridine-3-sulfonamide], the values for the Ki on human σ2/TMEM97 receptor and on human σ1 receptor were over 1000 nM and under 100 nM, respectively.
For `N#Cc1cc(CN2CCC3(CC2)CCN(S(=O)(=O)c2ccc(N4CCOC4=O)nc2)CC3)ccc1F` [Example 157, 2-Fluoro-5-((9-((6-(2-oxooxazolidin-3-yl)pyridin-3-yl)sulfonyl)-3,9-diazaspiro[5.5]undecan-3-yl)methyl)benzonitrile] the same measures were under 100 nM and over 1000 nM.
For `CN(C)c1ccc(S(=O)(=O)N[C@H]2CC[C@H](N(C)Cc3ccccc3)CC2)cn1` [Example 30, N-((1r,4r)-4-(Benzyl (methyl)amino)cyclohexyl)-6-(dimethylamino) pyridine-3-sulfonamide], in that order: 100 to 500 nM and 500 to 1000 nM.
Take `O=S(=O)(N[C@@H]1CCN(Cc2ccccc2)C1)c1ccc(N2[C@@H]3CC[C@H]2COC3)nc1` [Example 27, N-((R)-1-Benzylpyrrolidin-3-yl)-6-((1R,5S)-3-oxa-8-azabicyclo [3.2.1]octan-8-yl)pyridine-3-sulfonamide]: at human σ2/TMEM97 receptor, the Ki is over 1000 nM.

The values are drawn from patent publication US20240254115A1 (ACONDICIONAMIENTO TARRASENSE, priority 2021, published 2024).
